Experiments:
HepG2 cells = assay: Quantification of the secretion of ApoB; assay type: cell-based; settings: Homo sapiens, HepG2, 24 h, 24 hours of incubation, pIC50 = -log IC50
Procedure, shortened: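 At 70% confluency, HepG2 cells received compound (0.4% DMSO final) for 24 h. Secreted apoB in cleared medium was immunoprecipitated with sheep anti-apoB then rabbit anti-sheep antibody (24 h each at 8° C.), and pellet radioactivity was counted by scintillation. IC50 values were expressed as pIC50.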

MTP = MTP (Homo sapiens, UniProt P55157); assay: MTP assay (triglyceride transfer from donor to acceptor vesicles); assay type: biochemical; settings: MTP activity, percent triglyceride transfer from donor to acceptor vesicles, 37° C.
MTP, sequence (P55157 19-894, species assumed): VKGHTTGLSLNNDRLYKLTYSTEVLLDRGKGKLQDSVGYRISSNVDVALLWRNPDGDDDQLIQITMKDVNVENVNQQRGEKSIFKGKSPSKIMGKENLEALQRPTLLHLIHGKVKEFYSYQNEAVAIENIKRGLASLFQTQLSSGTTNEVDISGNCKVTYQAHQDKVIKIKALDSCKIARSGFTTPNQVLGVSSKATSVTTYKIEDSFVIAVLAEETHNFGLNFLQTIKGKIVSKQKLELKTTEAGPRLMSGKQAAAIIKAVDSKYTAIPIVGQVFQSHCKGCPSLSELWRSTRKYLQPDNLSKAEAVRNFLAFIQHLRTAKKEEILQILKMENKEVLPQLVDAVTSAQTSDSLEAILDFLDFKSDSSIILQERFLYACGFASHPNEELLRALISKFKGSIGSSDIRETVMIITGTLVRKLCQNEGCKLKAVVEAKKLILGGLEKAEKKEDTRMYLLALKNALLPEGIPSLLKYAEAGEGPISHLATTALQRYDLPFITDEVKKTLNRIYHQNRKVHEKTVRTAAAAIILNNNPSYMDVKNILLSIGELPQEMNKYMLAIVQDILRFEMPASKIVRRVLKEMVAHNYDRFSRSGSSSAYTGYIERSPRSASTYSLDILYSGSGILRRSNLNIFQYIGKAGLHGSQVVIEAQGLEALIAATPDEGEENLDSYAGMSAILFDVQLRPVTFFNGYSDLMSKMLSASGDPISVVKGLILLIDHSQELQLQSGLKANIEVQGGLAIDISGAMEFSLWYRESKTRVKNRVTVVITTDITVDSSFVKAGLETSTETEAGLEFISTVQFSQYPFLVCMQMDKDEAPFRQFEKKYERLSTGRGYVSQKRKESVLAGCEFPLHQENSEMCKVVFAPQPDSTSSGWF
MTP, sequence (P07237 18-508 partner, species assumed): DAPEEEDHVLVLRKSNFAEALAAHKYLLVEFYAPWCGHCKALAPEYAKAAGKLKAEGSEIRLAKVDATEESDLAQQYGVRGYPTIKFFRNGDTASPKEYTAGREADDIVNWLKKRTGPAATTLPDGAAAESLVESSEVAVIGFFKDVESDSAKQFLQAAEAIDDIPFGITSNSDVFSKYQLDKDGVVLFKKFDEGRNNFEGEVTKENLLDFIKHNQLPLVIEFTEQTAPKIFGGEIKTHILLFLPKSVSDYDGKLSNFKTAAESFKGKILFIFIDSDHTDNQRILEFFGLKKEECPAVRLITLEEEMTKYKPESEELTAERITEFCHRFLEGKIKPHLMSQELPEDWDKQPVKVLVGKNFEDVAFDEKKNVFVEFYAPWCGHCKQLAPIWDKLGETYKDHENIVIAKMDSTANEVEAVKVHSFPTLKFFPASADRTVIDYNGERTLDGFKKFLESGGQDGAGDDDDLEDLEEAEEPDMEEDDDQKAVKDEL
Procedure, shortened: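 Radiolabelled triglyceride transfer from donor vesicles (phosphatidylcholine, 7.5 mol % cardiolipin, 0.25 mol % glycerol tri[1-^14C]-oleate) to phosphatidylcholine acceptor vesicles with BSA, pH 7.5 Tris buffer; compounds in DMSO (0.13% final), 5 min preincubation at 37° C before MTP addition. Donor vesicles removed on DEAE-52; acceptor-supernatant ^14C counts give percent transfer.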

## COc1ccccc1C(=O)NC1CCN(C(=O)[C@H]2CC[C@@](C(=O)NCCCC(=O)OC(C)(C)C)(c3ccccc3)c3ccccc32)CC1 [Co. No. 203]
HepG2 cells
  IC50: 30 nM
MTP
  IC50: 2.05 nM

## COC(=O)CCCCNC(=O)[C@@]1(c2ccccc2)CC[C@H](C(=O)N2CCC(NC(=O)c3ccccc3OC)CC2)c2ccccc21 [Co. No. 204]
HepG2 cells
  IC50: > 1000 nM
MTP
  IC50: 58.7 nM

## CCOC(=O)CCCCNC(=O)[C@@]1(c2ccccc2)CC[C@H](C(=O)N2CCC(NC(=O)c3ccccc3OC)CC2)c2ccccc21 [Co. No. 205]
HepG2 cells
  IC50: 75.5 nM
MTP
  IC50: 5.45 nM

## COc1ccccc1C(=O)NC1CCN(C(=O)[C@H]2CC[C@@](C(=O)NCCCCC(=O)OC(C)C)(c3ccccc3)c3ccccc32)CC1 [Co. No. 206]
HepG2 cells
  IC50: 42.4 nM
MTP
  IC50: 2.96 nM

## COC(=O)CCCCCNC(=O)[C@@]1(c2ccccc2)CC[C@H](C(=O)N2CCC(NC(=O)c3ccccc3OC)CC2)c2ccccc21 [Co. No. 207]
HepG2 cells
  IC50: > 1000 nM
MTP
  IC50: 2.59 nM

## COc1ccccc1C(=O)NC1CCN(C(=O)[C@H]2CC[C@@](C(=O)NCCCCCC(=O)OC(C)C)(c3ccccc3)c3ccccc32)CC1 [Co. No. 208]
HepG2 cells
  IC50: 57.7 nM
MTP
  IC50: 1.86 nM

## COc1ccccc1C(=O)NC1CCN(C(=O)[C@H]2CC[C@@](C(=O)NCCCCCC(=O)OC(C)(C)C)(c3ccccc3)c3ccccc32)CC1 [Co. No. 209]
HepG2 cells
  IC50: > 1000 nM
MTP
  IC50: 36.2 nM

## CCOC(=O)[C@H](CCCCNC(=O)OC(C)(C)C)NC(=O)[C@@]1(c2ccccc2)CC[C@H](C(=O)N2CCC(NC(=O)c3ccccc3OC)CC2)c2ccccc21 [Co. No. 210]
HepG2 cells
  IC50: 8.67 nM
MTP
  IC50: 2.95 nM

## CCOC(=O)NCCCC[C@H](NC(=O)[C@@]1(c2ccccc2)CC[C@H](C(=O)N2CCC(NC(=O)c3ccccc3OC)CC2)c2ccccc21)C(=O)OCC [Co. No. 211]
HepG2 cells
  IC50: 95.7 nM
MTP
  IC50: 6.1 nM

## CCOC(=O)NCCCC[C@H](NC(=O)[C@@]1(c2ccccc2)CC[C@H](C(=O)N2CCC(NC(=O)c3ccccc3OC)CC2)c2ccccc21)C(=O)OC(C)C [Co. No. 212]
HepG2 cells
  IC50: 22.3 nM
MTP
  IC50: 4.34 nM

## COc1ccccc1C(=O)NC1CCN(C(=O)[C@H]2CC[C@@](C(=O)N[C@@H](CCCCNC(=O)OC(C)C)C(=O)OC(C)C)(c3ccccc3)c3ccccc32)CC1 [Co. No. 213]
HepG2 cells
  IC50: 5.9 nM
MTP
  IC50: 3.1 nM

## COC(=O)[C@H](CCCCNC(=O)[C@@]1(c2ccccc2)CC[C@H](C(=O)N2CCC(NC(=O)c3ccccc3OC)CC2)c2ccccc21)NC(C)=O [Co. No. 214]
HepG2 cells
  IC50: > 1000 nM
MTP
  IC50: 26.8 nM

## COC(=O)[C@@H](CCCCNC(=O)OC(C)(C)C)NC(=O)[C@@]1(c2ccccc2)CC[C@H](C(=O)N2CCC(NC(=O)c3ccccc3OC)CC2)c2ccccc21 [Co. No. 215]
HepG2 cells
  IC50: 18.4 nM
MTP
  IC50: 2.92 nM

## CCOC(=O)[C@@H](CCCCNC(=O)OC(C)(C)C)NC(=O)[C@@]1(c2ccccc2)CC[C@H](C(=O)N2CCC(NC(=O)c3ccccc3OC)CC2)c2ccccc21 [Co. No. 216]
HepG2 cells
  IC50: 31.1 nM
MTP
  IC50: 6.7 nM

## CCOC(=O)NCCCC[C@@H](NC(=O)[C@@]1(c2ccccc2)CC[C@H](C(=O)N2CCC(NC(=O)c3ccccc3OC)CC2)c2ccccc21)C(=O)OCC [Co. No. 217]
HepG2 cells
  IC50: 256 nM
MTP
  IC50: 8.22 nM

## CCOC(=O)NCCCC[C@@H](NC(=O)[C@@]1(c2ccccc2)CC[C@H](C(=O)N2CCC(NC(=O)c3ccccc3OC)CC2)c2ccccc21)C(=O)OC(C)C [Co. No. 218]
HepG2 cells
  IC50: 65 nM
MTP
  IC50: 2.41 nM

## COC(=O)[C@@H](CCCCNC(=O)OC(C)C)NC(=O)[C@@]1(c2ccccc2)CC[C@H](C(=O)N2CCC(NC(=O)c3ccccc3OC)CC2)c2ccccc21 [Co. No. 219]
HepG2 cells
  IC50: 300 nM
MTP
  IC50: 4.24 nM

## CCOC(=O)[C@@H](CCCCNC(=O)OC(C)C)NC(=O)[C@@]1(c2ccccc2)CC[C@H](C(=O)N2CCC(NC(=O)c3ccccc3OC)CC2)c2ccccc21 [Co. No. 220]
HepG2 cells
  IC50: 21.1 nM
MTP
  IC50: 1.86 nM

## COc1ccccc1C(=O)NC1CCN(C(=O)[C@H]2CC[C@@](C(=O)N[C@H](CCCCNC(=O)OC(C)C)C(=O)OC(C)C)(c3ccccc3)c3ccccc32)CC1 [Co. No. 221]
HepG2 cells
  IC50: 135 nM
MTP
  IC50: 1.78 nM

## CC(C)OC(=O)CCNC(=O)[C@@]1(c2ccccc2)CC[C@H](C(=O)N2CCC(NC(=O)c3cccn(C)c3=O)CC2)c2ccccc21 [Co. No. 222]
HepG2 cells
  IC50: > 1000 nM
MTP
  IC50: 45.8 nM

## CCOC(=O)CCCNC(=O)[C@@]1(c2ccccc2)CC[C@H](C(=O)N2CCC(NC(=O)c3cccn(C)c3=O)CC2)c2ccccc21 [Co. No. 225]
HepG2 cells
  IC50: > 1000 nM
MTP
  IC50: > 100 nM

## Cn1cccc(C(=O)NC2CCN(C(=O)[C@H]3CC[C@@](C(=O)NCCCC(=O)OC(C)(C)C)(c4ccccc4)c4ccccc43)CC2)c1=O [Co. No. 226]
HepG2 cells
  IC50: > 1000 nM
MTP
  IC50: 111 nM

## CC(C)OC(=O)CCCCCNC(=O)[C@@]1(c2ccccc2)CC[C@H](C(=O)N2CCC(NC(=O)c3cccn(C)c3=O)CC2)c2ccccc21 [Co. No. 229]
HepG2 cells
  IC50: > 1000 nM
MTP
  IC50: 7.57 nM

## CCOC(=O)[C@H](CCCCNC(=O)OC(C)(C)C)NC(=O)[C@@]1(c2ccccc2)CC[C@H](C(=O)N2CCC(NC(=O)c3cccn(C)c3=O)CC2)c2ccccc21 [Co. No. 231]
HepG2 cells
  IC50: > 1000 nM
MTP
  IC50: > 100 nM

## CCOC(=O)NCCCC[C@H](NC(=O)[C@@]1(c2ccccc2)CC[C@H](C(=O)N2CCC(NC(=O)c3cccn(C)c3=O)CC2)c2ccccc21)C(=O)OC(C)C [Co. No. 233]
HepG2 cells
  IC50: > 1000 nM
MTP
  IC50: 117 nM

## CC(C)OC(=O)NCCCC[C@H](NC(=O)[C@@]1(c2ccccc2)CC[C@H](C(=O)N2CCC(NC(=O)c3cccn(C)c3=O)CC2)c2ccccc21)C(=O)OC(C)C [Co. No. 235]
HepG2 cells
  IC50: > 1000 nM
MTP
  IC50: 109 nM

## CCCOC(=O)CCCCCNC(=O)[C@@]1(c2ccccc2)CC[C@H](C(=O)N2CCC(NC(=O)c3ccccc3OC)CC2)c2ccccc21 [Co. No. 246]
HepG2 cells
  IC50: 234 nM
MTP
  IC50: 3.87 nM

## CCCOC(=O)CC[C@H](NC(=O)[C@@]1(c2ccccc2)CC[C@H](C(=O)N2CCC(NC(=O)c3ccccc3OC)CC2)c2ccccc21)C(=O)OCCC [Co. No. 247]
HepG2 cells
  IC50: 382 nM
MTP
  IC50: 5.96 nM

## COc1ccccc1C(=O)NC1CCN(C(=O)[C@H]2CC[C@@](C(=O)N[C@@H](CCC(=O)OC(C)C)C(=O)OC(C)C)(c3ccccc3)c3ccccc32)CC1 [Co. No. 248]
HepG2 cells
  IC50: 184 nM
MTP
  IC50: 6.61 nM

## CCCOC(=O)CCCNC(=O)[C@@]1(c2ccccc2)CC[C@H](C(=O)N2CCC(NC(=O)c3ccccc3OC)CC2)c2ccccc21 [Co. No. 249]
HepG2 cells
  IC50: 586 nM
MTP
  IC50: 2.64 nM

## COc1ccccc1C(=O)NC1CCN(C(=O)[C@H]2CC[C@@](C(=O)NCCCC(=O)OC(C)C)(c3ccccc3)c3ccccc32)CC1 [Co. No. 250]
HepG2 cells
  IC50: 343 nM
MTP
  IC50: 1.79 nM

## CCOC(=O)[C@]1(c2ccccc2)CC[C@@H](C(=O)N2CCC(NC(=O)c3ccccc3N3CCOCC3)CC2)c2ccccc21 [Co. No. 252]
HepG2 cells
  IC50: 3.52 nM
MTP
  IC50: 2.49 nM

## CCOC(=O)[C@@]1(c2ccccc2)CC[C@H](C(=O)N2CCC(NC(=O)c3cccnc3OC)CC2)c2ccccc21 [Co. No. 253]
HepG2 cells
  IC50: 3.24 nM
MTP
  IC50: 0.984 nM

## COC(=O)CCNC(=O)[C@@]1(c2ccccc2)CC[C@H](C(=O)N2CCC(NC(=O)c3cccnc3OC)CC2)c2ccccc21 [Co. No. 254]
HepG2 cells
  IC50: 17.1 nM
MTP
  IC50: 3 nM

## COC(=O)CCNC(=O)[C@@]1(c2ccccc2)CC[C@H](C(=O)N2CCC(NC(=O)c3cccnc3O)CC2)c2ccccc21 [Co. No. 255]
HepG2 cells
  IC50: > 1000 nM
MTP
  IC50: 585 nM

## COC(=O)CCNC(=O)[C@]1(c2ccccc2)CC[C@@H](C(=O)N2CCC(NC(=O)c3ccccc3OC)CC2)c2ccccc21 [Co. No. 256]
HepG2 cells
  IC50: > 1000 nM
MTP
  IC50: > 1000 nM

## COc1ccccc1C(=O)NC1CCN(C(=O)[C@@H]2CC[C@](C(=O)NCCC(=O)OC(C)C)(c3ccccc3)c3ccccc32)CC1 [Co. No. 257]
HepG2 cells
  IC50: > 1000 nM
MTP
  IC50: > 1000 nM

## COc1ncccc1C(=O)NC1CCN(C(=O)[C@H]2CC[C@@](C(=O)NCCC(=O)O)(c3ccccc3)c3ccccc32)CC1 [Co. No. 258]
HepG2 cells
  IC50: > 1000 nM
MTP
  IC50: 1800 nM

## CCCOC(=O)[C@]1(c2ccccc2)CC[C@@H](C(=O)N2CCC(NC(=O)c3ccccc3N3CCOCC3)CC2)c2ccccc21 [Co. No. 260]
HepG2 cells
  IC50: 6.34 nM
MTP
  IC50: 3.64 nM

## COc1ncccc1C(=O)NC1CCN(C(=O)[C@@H]2CC[C@](C(=O)NCCC(=O)OC(C)C)(c3ccccc3)c3ccccc32)CC1 [Co. No. 261]
HepG2 cells
  IC50: > 1000 nM
MTP
  IC50: 757 nM

## COC(=O)CCNC(=O)[C@]1(c2ccccc2)CC[C@@H](C(=O)N2CCC(NC(=O)c3cccnc3OC)CC2)c2ccccc21 [Co. No. 262]
HepG2 cells
  IC50: > 1000 nM
MTP
  IC50: > 1000 nM

## COC(=O)CCNC(=O)[C@]1(c2ccccc2)CC[C@@H](C(=O)N2CCC(NC(=O)c3ccccc3N3CCOCC3)CC2)c2ccccc21 [Co. No. 263]
HepG2 cells
  IC50: 64.4 nM
MTP
  IC50: 15.7 nM

## C=CCOC(=O)[C@@]1(c2ccccc2)CC[C@H](C(=O)N2CCC(NC(=O)c3cccnc3OC)CC2)c2ccccc21 [Co. No. 266]
HepG2 cells
  IC50: 2.04 nM
MTP
  IC50: 0.966 nM

## COC(=O)CCNC(=O)[C@@]1(c2ccccc2)CC[C@H](C(=O)N2CCC(NC(=O)c3ccccc3N3CCN(C)CC3)CC2)c2ccccc21 [Co. No. 272]
HepG2 cells
  IC50: 670 nM
MTP
  IC50: 50.9 nM

## CCOC(=O)[C@@]1(c2cccc(F)c2)CC[C@@H](C(=O)N2CCC(NC(=O)c3ccccc3OC)CC2)c2cc(F)ccc21 [Co. No. 273]
HepG2 cells
  IC50: 1000 nM
MTP
  IC50: 165 nM

## CCOC(=O)[C@@]1(c2ccccc2)CC[C@H](C(=O)N2CCC(NC(=O)c3cccnc3OC(C)C)CC2)c2ccccc21 [Co. No. 274]
HepG2 cells
  IC50: 17.3 nM
MTP
  IC50: 4.69 nM

From US8114880B2, “Piperidine or piperazine substituted tetrahydro-naphthalene-1-carboxylic acid MTP inhibiting compounds” (Janssen Pharmaceutica N.V., priority 2006, dated 2012)
